Data: US8048880B2, “Treatment of cardiovascular disease and dyslipidemia using secretory phospholipase A2 (SPLA2) inhibitors and SPLA2 inhibitor combination therapies” (Anthera Pharmaceuticals, Inc., priority 2007, dated 2011)

What was measured:
[1] = Body weight of ApoE−/− mice on high fat diet during 16 weeks of A-002 (Example 1); assay type: in vivo; details: oral gavage
Experimental: (§1) Male ApoE^−/− mice were fed a high fat diet (21% fat, 0.15% cholesterol, 19.5% casein) ad libitum for two weeks in order to acclimate to the diet. Plasma cholesterol levels and body weight were measured in order to obtain baseline levels, and mice were randomized into three groups of 20 mice based on these measurements. After the acclimation period, mice remained on the high fat diet and were administered A-002 (30 mg/kg or 90 mg/kg) or vehicle only (5% acacia) twice a day for 16 weeks by oral gavage.
Plasma cholesterol levels and body weight were measured at 4, 8, 12, and 16 weeks after the start of A-002 administration. Comparisons of measurements between test and control mice at each time period were performed using a two-way analysis of variance test (ANOVA) for repeated measures, followed by post-hoc Bonferroni test for significance.

[2] = tested on: ApoE−/− mice; assay: Atherosclerotic plaque coverage of the aorta in ApoE−/− mice (Example 1); assay type: in vivo; details: at 16 weeks
Experimental: as §1
At the end of the 16th week, mice were sacrificed and plasma samples, heart tissue, and aortas from the heart to approximately 3 mm distal to the iliac bifurcation were collected. Aortas were placed on microscope slides and stained with Oil Red O for scanning and image analysis of atherosclerotic lesion size. Vessel images were captured using a Microtek Scanmaker 9600XL scanner (Microtek, Carson, Calif.) and Photoshop 6.0 software (Adobe Systems Inc., San Jose, Calif.). Atherosclerotic plaque coverage was quantified for the entire length of the vessel including the arch using Image-Pro Plus software. Vessels were also analyzed for plaque coverage in the descending abdominal aorta, starting in the region of the first intercostal branches to the iliac bifurcation (not including the arch). Plaque content was expressed as a percent of the aortic surface. […]

Compound: CCc1c(C(=O)C(N)=O)c2c(OCC(=O)OC)cccc2n1Cc1ccccc1 [A-002, [[3-(2-Amino-1,2-dioxoethyl)-2-ethyl-1-(phenylmethyl)-1H-indol-4-yl]oxy]acetic acid methyl ester]
- Body weight increase over the 16 week test period ([1]; 30 mg/kg A-002 twice a day): ~150%
- Body weight increase over the 16 week test period ([1]; 90 mg/kg A-002 twice a day): ~141%
- plaque coverage in aortic tissue ([2]; 30 mg/kg A-002 twice a day): 6.3%
- plaque coverage in aortic tissue ([2]; 90 mg/kg A-002 twice a day): 6.8%
